From patent US20240109917A1 (ACTELION PHARMACEUTICALS LTD, priority 2020, published 2024)
Like-named read-outs stand apart in the source and are kept apart here.

Legend:
VEGFR2, unphosphorylated = VEGFR2, unphosphorylated (Homo sapiens (Human), UniProt P35968); test: VEGFR ADP GLO Assay; format: biochemical
PDGFRβ = PDGFRβ (Rattus norvegicus (Rat), UniProt Q05030); test: PDGFRβ Cellular Assay (PDGFRb P-Y751 HTRF in A10 cells stimulated with PDGF-BB); format: cell-based
Outline: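 Rat A10 cells, plated overnight, were treated with compound for 3 hours, then stimulated with PDGF-BB (working stock 100 ng/mL in 10% FBS medium). After lysis, PDGFRβ P-Y751 was detected by HTRF.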

VEGFR2, unphosphorylated, sequence (P35968 20-1356): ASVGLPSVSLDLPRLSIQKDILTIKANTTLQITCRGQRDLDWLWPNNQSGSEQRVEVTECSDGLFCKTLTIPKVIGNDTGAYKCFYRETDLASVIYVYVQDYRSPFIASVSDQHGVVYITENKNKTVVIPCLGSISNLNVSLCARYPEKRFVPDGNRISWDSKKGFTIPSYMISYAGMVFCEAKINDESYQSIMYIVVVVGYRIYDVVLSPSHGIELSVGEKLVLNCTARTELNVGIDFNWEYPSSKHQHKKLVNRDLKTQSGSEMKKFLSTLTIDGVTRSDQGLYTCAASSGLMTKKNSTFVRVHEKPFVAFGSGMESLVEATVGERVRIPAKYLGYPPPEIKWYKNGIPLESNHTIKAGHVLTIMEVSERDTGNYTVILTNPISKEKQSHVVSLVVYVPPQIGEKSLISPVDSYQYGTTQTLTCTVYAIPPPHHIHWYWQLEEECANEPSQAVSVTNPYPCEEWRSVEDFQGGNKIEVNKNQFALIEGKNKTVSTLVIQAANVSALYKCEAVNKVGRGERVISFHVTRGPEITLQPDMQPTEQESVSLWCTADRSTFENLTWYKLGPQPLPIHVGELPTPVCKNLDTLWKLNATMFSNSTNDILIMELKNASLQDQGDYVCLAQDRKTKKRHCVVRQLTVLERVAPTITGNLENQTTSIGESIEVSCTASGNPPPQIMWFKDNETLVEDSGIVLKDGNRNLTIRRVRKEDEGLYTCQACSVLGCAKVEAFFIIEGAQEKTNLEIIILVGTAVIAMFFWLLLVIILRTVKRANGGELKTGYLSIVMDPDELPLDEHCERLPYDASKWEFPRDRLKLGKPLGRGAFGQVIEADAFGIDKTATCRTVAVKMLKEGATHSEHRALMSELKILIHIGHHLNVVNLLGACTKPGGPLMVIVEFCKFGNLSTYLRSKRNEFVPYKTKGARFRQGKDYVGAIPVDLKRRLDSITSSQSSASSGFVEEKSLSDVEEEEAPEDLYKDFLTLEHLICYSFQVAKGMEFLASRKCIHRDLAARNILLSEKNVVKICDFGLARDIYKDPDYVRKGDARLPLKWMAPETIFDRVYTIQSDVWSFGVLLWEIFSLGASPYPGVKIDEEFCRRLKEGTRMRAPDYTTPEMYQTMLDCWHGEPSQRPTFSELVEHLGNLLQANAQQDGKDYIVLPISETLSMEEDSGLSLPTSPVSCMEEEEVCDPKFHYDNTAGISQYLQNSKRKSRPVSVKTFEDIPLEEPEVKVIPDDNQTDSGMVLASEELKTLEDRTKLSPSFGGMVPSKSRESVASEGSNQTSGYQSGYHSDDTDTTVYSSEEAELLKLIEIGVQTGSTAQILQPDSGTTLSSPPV
PDGFRβ, sequence (Q05030 32-1097): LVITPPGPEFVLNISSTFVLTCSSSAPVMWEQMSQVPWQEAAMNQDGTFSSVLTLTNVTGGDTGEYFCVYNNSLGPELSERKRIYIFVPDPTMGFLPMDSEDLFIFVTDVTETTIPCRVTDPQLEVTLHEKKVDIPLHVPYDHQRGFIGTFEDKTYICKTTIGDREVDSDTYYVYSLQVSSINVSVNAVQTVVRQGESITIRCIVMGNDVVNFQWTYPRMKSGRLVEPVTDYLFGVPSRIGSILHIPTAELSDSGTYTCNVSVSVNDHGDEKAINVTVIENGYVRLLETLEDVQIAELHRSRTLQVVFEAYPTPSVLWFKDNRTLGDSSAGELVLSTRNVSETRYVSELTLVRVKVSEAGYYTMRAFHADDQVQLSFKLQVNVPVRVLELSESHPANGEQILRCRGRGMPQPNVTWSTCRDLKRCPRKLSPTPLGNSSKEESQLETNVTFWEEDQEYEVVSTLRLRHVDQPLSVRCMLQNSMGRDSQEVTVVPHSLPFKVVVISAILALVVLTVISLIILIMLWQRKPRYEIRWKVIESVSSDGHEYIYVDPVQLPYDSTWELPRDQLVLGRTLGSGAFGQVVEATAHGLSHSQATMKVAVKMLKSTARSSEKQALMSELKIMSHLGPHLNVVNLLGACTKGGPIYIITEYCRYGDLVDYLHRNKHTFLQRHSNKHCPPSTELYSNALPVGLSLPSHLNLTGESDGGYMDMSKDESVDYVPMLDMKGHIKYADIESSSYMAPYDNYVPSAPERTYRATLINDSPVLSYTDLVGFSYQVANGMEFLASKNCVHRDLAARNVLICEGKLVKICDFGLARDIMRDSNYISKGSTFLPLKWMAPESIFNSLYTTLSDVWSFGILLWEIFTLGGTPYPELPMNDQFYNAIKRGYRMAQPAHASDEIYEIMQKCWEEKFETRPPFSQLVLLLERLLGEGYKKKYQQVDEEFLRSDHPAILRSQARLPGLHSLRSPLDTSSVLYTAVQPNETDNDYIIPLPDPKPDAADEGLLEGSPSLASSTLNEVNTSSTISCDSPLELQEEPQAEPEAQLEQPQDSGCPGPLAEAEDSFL

SMILES | IC50 (VEGFR2, unphosphorylated) | IC50 (PDGFRβ; read-out: PDGFR Cellular IC50) | IC50 (PDGFRβ; PDGFR Cellular IC50)
Cc1ncc(NC(=O)CN2C[C@@H](C)O[C@H](C)C2)cc1NC(=O)c1cnn2cc(-c3cn(C)nc3C)sc12 [Example 431] | > 7500 nM | 5 nM | –
Cc1ncc(NC(=O)CN2CC(C)(C)C2)cc1NC(=O)c1cnn2cc(-c3cnn(C)c3C)sc12 [Example 434, 2-(1,5-Dimethyl-1H-pyrazol-4-yl)-N-(5-(2-(3,3-dimethylazetidin-1-yl)acetamido)-2-methylpyridin-3-yl)pyrazolo[5,1-b]thiazole-7-carboxamide] | 5220 nM | 2.4 nM | –
Cc1ncc(NC(=O)CN2CCCC[C@@H]2C)cc1NC(=O)c1cnn2cc(-c3cnn(CCO)c3)sc12 [Example 34, (S)-2-(1-(2-hydroxyethyl)-1H-pyrazol-4-yl)-N-(2-methyl-5-(2-(2-methyl-piperidin-1-yl)acetamido)pyridin-3-yl)pyrazolo[5,1-b]thiazole-7-carboxamide] | > 7500 nM | – | 30.3 nM
Cc1ncc(NC(=O)CNCC(C)C)cc1NC(=O)c1cnn2cc(-c3cnn4c3OCCC4)sc12 [Example 414, 2-(6,7-dihydro-5H-pyrazolo[5,1-b][1,3]oxazin-3-yl)-N-(5-(2-(isobutylamino)acetamido)-2-methylpyridin-3-yl)pyrazolo[5,1-b]thiazole-7-carboxamide] | 5100 nM | 6.2 nM | –
Cc1ncc(NC(=O)CC2CN(C)C2)cc1NC(=O)c1cnn2cc(-c3cnn4c3CCC4)sc12 [Example 468, 2-(5,6-dihydro-4H-pyrrolo[1,2-b]pyrazol-3-yl)-N-(2-methyl-5-(2-(1-methylazetidin-3-yl)acetamido)pyridin-3-yl)pyrazolo[5,1-b]thiazole-7-carboxamide] | > 7500 nM | 2000 nM | –
Cc1ncc(NC(=O)CN2CCC[C@@H]2C)cc1NC(=O)c1cnn2cc(-c3cnn4c3OCCC4)sc12 [Example 413, (S)-2-(6,7-dihydro-5H-pyrazolo[5,1-b][1,3]oxazin-3-yl)-N-(2-methyl-5-(2-(2-methylpyrrolidin-1-yl)acetamido)pyridin-3-yl)pyrazolo[5,1-b]thiazole-7-carboxamide] | > 7500 nM | 3.4 nM | –
Cc1ncc(NC(=O)C[C@@H]2CCN(C(C)C)C2)cc1NC(=O)c1cnn2cc(-c3cnn(C)c3)sc12 [Example 464, (S)—N-(5-(2-(1-isopropylpyrrolidin-3-yl)acetamido)-2-methylpyridin-3-yl)-2-(1-methyl-1H-pyrazol-4-yl)pyrazolo[5,1-b]thiazole-7-carboxamide] | > 7500 nM | 2000 nM | –
Cc1ncc(NC(=O)CN2CCCC2(C)C)cc1NC(=O)c1cnn2cc(-c3cnn(CCO)c3)sc12 [Example 447, N-(5-(2-(2,2-dimethylpyrrolidin-1-yl)acetamido)-2-methylpyridin-3-yl)-2-(1-(2-hydroxyethyl)-1H-pyrazol-4-yl)pyrazolo[5,1-b]thiazole-7-carboxamide] | > 7500 nM | 12.4 nM | –
Cc1ncc(NC(=O)CN2CC(C)(C)C2)cc1NC(=O)c1cnn2cc(-c3cnn4c3COCC4)sc12 [Example 476, 2-(6,7-dihydro-4H-pyrazolo[5,1-c][1,4]oxazin-3-yl)-N-(5-(2-(3,3-dimethylazetidin-1-yl)acetamido)-2-methylpyridin-3-yl)pyrazolo[5,1-b]thiazole-7-carboxamide] | > 7500 nM | 4.9 nM | –
Cc1ncc(C(=O)NCCN2CCCC23CCC3)cc1NC(=O)c1cnn2cc(-c3cnn4c3OCCC4)sc12 [Example 478, N-(5-((2-(5-azaspiro[3.4]octan-5-yl)ethyl)carbamoyl)-2-methylpyridin-3-yl)-2-(6,7-dihydro-5H-pyrazolo[5,1-b][1,3]oxazin-3-yl)pyrazolo[5,1-b]thiazole-7-carboxamide] | 2560 nM | 4.6 nM | –
Cc1ncc(NC(=O)CN2CC(C)(C)C2)cc1NC(=O)c1cnn2cc(-c3cnn4c3CCC4)sc12 [Example 409, 2-(5,6-dihydro-4H-pyrrolo[1,2-b]pyrazol-3-yl)-N-(5-(2-(3,3-dimethylazetidin-1-yl)acetamido)-2-methylpyridin-3-yl)pyrazolo[5,1-b]thiazole-7-carboxamide] | 3370 nM | 1.6 nM | –
Cc1ncc(NC(=O)CNCC2CC2)cc1NC(=O)c1cnn2cc(-c3cnn4c3OCCC4)sc12 [Example 453, N-(5-(2-((cyclopropylmethyl)amino)acetamido)-2-methylpyridin-3-yl)-2-(6,7-dihydro-5H-pyrazolo[5,1-b][1,3]oxazin-3-yl)pyrazolo[5,1-b]thiazole-7-carboxamide] | > 7500 nM | 25.1 nM | –
Cc1ncc(C(=O)NCCN2CCCC2(C)C)cc1NC(=O)c1cnn2cc(-c3cnn4c3CCC4)sc12 [Example 481, 2-(5,6-dihydro-4H-pyrrolo[1,2-b]pyrazol-3-yl)-N-(5-((2-(2,2-dimethylpyrrolidin-1-yl)ethyl)carbamoyl)-2-methylpyridin-3-yl)pyrazolo[5,1-b]thiazole-7-carboxamide] | > 7500 nM | 3.9 nM | –
Cc1ncc(NC(=O)CNC2CCCC2)cc1NC(=O)c1cnn2cc(-c3cnn4c3OCCC4)sc12 [Example 421, N-(5-(2-(cyclopentylamino)acetamido)-2-methylpyridin-3-yl)-2-(6,7-dihydro-5H-pyrazolo[5,1-b][1,3]oxazin-3-yl)pyrazolo[5,1-b]thiazole-7-carboxamide] | > 7500 nM | 6.2 nM | –
CCOc1ncccc1-c1cn2ncc(C(=O)Nc3cc(NC(=O)CN4CC(C)(C)C4)cnc3C)c2s1 [Example 436, N-(5-(2-(3,3-Dimethylazetidin-1-yl)acetamido)-2-methylpyridin-3-yl)-2-(2-ethoxypyridin-3-yl)pyrazolo[5,1-b]thiazole-7-carboxamide] | 4300 nM | 1.6 nM | –
Cc1ncc(C(=O)NCCN2CCCC23CCC3)cc1NC(=O)c1cnn2cc(-c3cnn4c3CCC4)sc12 [Example 461, N-(5-((2-(5-azaspiro[3.4]octan-5-yl)ethyl)carbamoyl)-2-methylpyridin-3-yl)-2-(5,6-dihydro-4H-pyrrolo[1,2-b]pyrazol-3-yl)pyrazolo[5,1-b]thiazole-7-carboxamide] | 3350 nM | 2.1 nM | –
Cc1cc(C(=O)NCCN2CCCC23CC3)sc1NC(=O)c1cnn2cc(-c3cnn(C)c3)sc12 [Example 37, N-(5-((2-(4-azaspiro[2.4]heptan-4-yl)ethyl)carbamoyl)-3-methylthiophen-2-yl)-2-(1-methyl-1H-pyrazol-4-yl)pyrazolo[5,1-b]thiazole-7-carboxamide] | > 7500 nM | 11.2 nM | –
Cc1ncc(NC(=O)CN2CCCC2(C)C)cc1NC(=O)c1cnn2cc(-c3cccnc3OCCF)sc12 [Example 448, N-(5-(2-(2,2-dimethylpyrrolidin-1-yl)acetamido)-2-methylpyridin-3-yl)-2-(2-(2-fluoroethoxy)pyridin-3-yl)pyrazolo[5,1-b]thiazole-7-carboxamide] | > 7500 nM | 2.4 nM | –
Cc1ncc(C(=O)NCC2CCCN2C)cc1NC(=O)c1cnn2cc(-c3cnn4c3OCCC4)sc12 (centres unmarked) [Example 470, 2-(6,7-dihydro-5H-pyrazolo[5,1-b][1,3]oxazin-3-yl)-N-(2-methyl-5-(((1-methylpyrrolidin-2-yl)methyl)carbamoyl)pyridin-3-yl)pyrazolo[5,1-b]thiazole-7-carboxamide] | > 7500 nM | 109 nM | –
